Measured values as given in patent US20120220562A1, “Anti-Viral Compounds” (ABBOTT LABAORATORIES, priority 2011, published 2012).

system: HCV 1b-Con1 replicon; experiment: HCV 1b-Con1 replicon assay in the presence of 5% FBS; type: cell-based; conditions: Hepatitis C virus

SMILES	EC50
COC(=O)N[C@H](C(=O)N1CCC[C@H]1c1nc2cc([C@H]3CC[C@H](c4ccc5[nH]c([C@@H]6CCCN6C(=O)[C@@H](NC(=O)OC)C(C)C)nc5c4)N3c3cc(F)c(N4CCC(F)(F)CC4)c(F)c3)ccc2[nH]1)C(C)C [Example 1.5, methyl {(2S)-1-[(2S)-2-{5-[(2R,5R)-1-[4-(4,4-difluoropiperidin-1-yl)-3,5-difluorophenyl]-5-{2-[(2S)-1-{(2S)-2-[(methoxycarbonyl)amino]-3-methylbutanoyl}pyrrolidin-2-yl]-1H-benzimidazol-5-yl}pyrrolidin-2-yl]-1H-benzimidazol-2-yl}pyrrolidin-1-yl]-3-methyl-1-oxobutan-2-yl}carbamate]	< 0.1 nM
COC(=O)N[C@H](C(=O)N1CCC[C@H]1c1nc2cc([C@H]3CC[C@H](c4ccc5[nH]c([C@@H]6CCCN6C(=O)[C@@H](NC(=O)OC)C(C)C)nc5c4)N3c3cc(F)c(N4CCCCC4c4ccccc4)c(F)c3)ccc2[nH]1)C(C)C (stereo partly drawn) [Example 4.50, methyl {(2S)-1-[(2S)-2-{5-[(2R,5R)-1-[3,5-difluoro-4-(2-phenylpiperidin-1-yl)phenyl]-5-{2-[(2S)-1-{(2S)-2-[(methoxycarbonyl)amino]-3-methylbutanoyl}pyrrolidin-2-yl]-1H-benzimidazol-5-yl}pyrrolidin-2-yl]-1H-benzimidazol-2-yl}pyrrolidin-1-yl]-3-methyl-1-oxobutan-2-yl}carbamate]	< 0.1 nM
COC(=O)N[C@H](C(=O)N1CCC[C@H]1c1nc2ccc([C@H]3CC[C@H](c4ccc5nc([C@@H]6CCCN6C(=O)[C@@H](NC(=O)OC)C(C)C)[nH]c5c4)N3c3cc(F)c(N4CCC(c5ccc6ccccc6c5)CC4)c(F)c3)cc2[nH]1)C(C)C [Example 2.12, methyl {(2S)-1-[(2S)-2-{5-[(2R,5R)-1-{3,5-difluoro-4-[4-(2-naphthyl)piperidin-1-yl]phenyl}-5-{2-[(2S)-1-{(2S)-2-[(methoxycarbonyl)amino]-3-methylbutanoyl}pyrrolidin-2-yl]-1H-benzimidazol-5-yl}pyrrolidin-2-yl]-1H-benzimidazol-2-yl}pyrrolidin-1-yl]-3-methyl-1-oxobutan-2-yl}carbamate]	< 0.1 nM
COC(=O)N[C@H](C(=O)N1CCC[C@H]1c1nc2ccc([C@H]3CC[C@H](c4ccc5nc([C@@H]6CCCN6C(=O)[C@@H](NC(=O)OC)C(C)C)[nH]c5c4)N3c3ccc(N(C(C)=O)C(C)(C)C)c(F)c3)cc2[nH]1)C(C)C [Example 2.8, methyl {(2S)-1-[(2S)-2-{6-[(2R,5R)-1-{4-[acetyl(tert-butyl)amino]-3-fluorophenyl}-5-{2-[(2S)-1-{(2S)-2-[(methoxycarbonyl)amino]-3-methylbutanoyl}pyrrolidin-2-yl]-1H-benzimidazol-6-yl}pyrrolidin-2-yl]-1H-benzimidazol-2-yl}pyrrolidin-1-yl]-3-methyl-1-oxobutan-2-yl}carbamate]	0.1 to 1 nM
CCC1(COc2ccc(N3[C@@H](c4ccc5[nH]c([C@@H]6CCCN6C(=O)[C@@H](NC(=O)OC)C(C)C)nc5c4)CC[C@@H]3c3ccc4[nH]c([C@@H]5CCCN5C(=O)[C@@H](NC(=O)OC)C(C)C)nc4c3)cc2)COC1 [Example 1.7, methyl {(2S)-1-[(2S)-2-{5-[(2R,5R)-1-{4-[(3-ethyloxetan-3-yl)methoxy]phenyl}-5-{2-[(2S)-1-{(2S)-2-[(methoxycarbonyl)amino]-3-methylbutanoyl}pyrrolidin-2-yl]-1H-benzimidazol-5-yl}pyrrolidin-2-yl]-1H-benzimidazol-2-yl}pyrrolidin-1-yl]-3-methyl-1-oxobutan-2-yl}carbamate]	< 0.1 nM
COC(=O)N[C@H](C(=O)N1[C@H](c2nc3cc([C@H]4CC[C@H](c5ccc6[nH]c([C@@H]7CCC(C)(C)N7C(=O)[C@@H](NC(=O)OC)C(C)C)nc6c5)N4c4ccc(C(C)(C)C)cc4)ccc3[nH]2)CCC1(C)C)C(C)C [Example 3.11, methyl {(2S)-1-[(5.5)-5-{5-[(2R,5R)-1-(4-tert-butylphenyl)-5-{2-[(2S)-1-{(2S)-2-[(methoxycarbonyl)amino]-3-methylbutanoyl}-5,5-dimethylpyrrolidin-2-yl]-1H-benzimidazol-5-yl}pyrrolidin-2-yl]-1H-benzimidazol-2-yl}-2,2-dimethylpyrrolidin-1-yl]-3-methyl-1-oxobutan-2-yl}carbamate]	< 0.1 nM
COC(=O)N[C@H](C(=O)N1CCCC1c1nc2cc([C@H]3CC[C@H](c4ccc5[nH]c([C@@H]6CCCN6)nc5c4)N3c3ccc(C(C)(C)C)cc3)ccc2[nH]1)C(C)C (stereo partly drawn) [Example 4.20, methyl [(2S)-1-(2-{5-[(2R,5R)-1-(4-tert-butylphenyl)-5-{2-[(2S)-pyrrolidin-2-yl]-1H-benzimidazol-5-yl}pyrrolidin-2-yl]-1H-benzimidazol-2-yl}pyrrolidin-1-yl)-3-methyl-1-oxobutan-2-yl]carbamate]	< 0.1 nM
COC(=O)N[C@H](C(=O)N1CCC[C@H]1c1nc2cc([C@H]3CC[C@H](c4cc5nc([C@@H]6CCCN6C(=O)[C@@H](NC(=O)OC)C6CCOCC6)[nH]c5cc4F)N3c3cc(F)c(N4CCCCC4)c(F)c3)c(F)cc2[nH]1)C1CCOCC1 [Example 3.35, dimethyl ({(2R,5R)-1-[3,5-difluoro-4-(piperidin-1-yl)phenyl]pyrrolidine-2,5-diyl}bis {(6-fluoro-1H-benzimidazole-5,2-diyl)(2S)pyrrolidine-2,1-diyl[(1S)-2-oxo-1-(tetrahydro-2H-pyran-4-yl)ethane-2,1-diyl]})biscarbamate]	< 0.1 nM
COC(=O)N[C@H](C(=O)N1CCC[C@H]1c1nc2cc([C@H]3CC[C@H](c4ccc5[nH]c([C@@H]6CCCN6C(=O)[C@@H](NC(=O)OC)C(C)C)nc5c4)N3c3cc(F)c(N4CCC(C)(C)CC4)c(F)c3)ccc2[nH]1)C(C)C [Example 5.10, methyl {(2S)-1-[(2S)-2-{5-[(2R,5R)-1-[4-(4,4-dimethylpiperidin-1-yl)-3,5-difluorophenyl]-5-{2-[(2S)-1-{(2S)-2-[(methoxycarbonyl)amino]-3-methylbutanoyl}pyrrolidin-2-yl]-1H-benzimidazol-5-yl}pyrrolidin-2-yl]-1H-benzimidazol-2-yl}pyrrolidin-1-yl]-3-methyl-1-oxobutan-2-yl}carbamate]	< 0.1 nM
COC(=O)N[C@H](C(=O)N1CCC[C@H]1c1nc2cc([C@H]3CC[C@H](c4ccc5[nH]c([C@@H]6CCCN6C(=O)[C@@H](NC(=O)OC)C6CCCC6)nc5c4)N3c3cc(F)c(N4CCC(c5ccccc5)CC4)c(F)c3)ccc2[nH]1)C1CCCC1 [Example 3.24, dimethyl ({(2R,5R)-1-[3,5-difluoro-4-(4-phenylpiperidin-1-yl)phenyl]pyrrolidine-2,5-diyl}bis{1H-benzimidazole-5,2-diyl(2S)pyrrolidine-2,1-diyl[(1S)-1-cyclopentyl-2-oxoethane-2,1-diyl]})biscarbamate]	< 0.1 nM
COC(=O)N[C@@H](C(=O)N1c2ccccc2C[C@H]1c1nc2cc([C@H]3CC[C@H](c4ccc5[nH]c([C@@H]6Cc7ccccc7N6C(=O)[C@H](NC(=O)OC)C(C)C)nc5c4)N3c3cc(F)c(N4CCCCC4)c(F)c3)ccc2[nH]1)C(C)C [Example 3.25, methyl {(2R)-1-[(2S)-2-{5-[(2R,5R)-1-[3,5-difluoro-4-(piperidin-1-yl)phenyl]-5-{2-[(2S)-1-{(2R)-2-[(methoxycarbonyl)amino]-3-methylbutanoyl}-2,3-dihydro-1H-indol-2-yl]-1H-benzimidazol-5-yl}pyrrolidin-2-yl]-1H-benzimidazol-2-yl}-2,3-dihydro-1H-indol-1-yl]-3-methyl-1-oxobutan-2-yl}carbamate]	< 0.1 nM
COC(=O)N[C@H](C(=O)N1CCC[C@H]1c1nc2cc([C@H]3CC[C@H](c4cc5nc([C@@H]6CCCN6C(=O)[C@@H](NC(=O)OC)C6CCCC6)[nH]c5cc4F)N3c3cc(F)c(N4CCC(C(C)(C)C)CC4)c(F)c3)c(F)cc2[nH]1)C1CCCC1 [Example 4.28, dimethyl ({(2R,5R)-1-[4-(4-tert-butylpiperidin-1-yl)-3,5-difluorophenyl]pyrrolidine-2,5-diyl}bis{(6-fluoro-1H-benzimidazole-5,2-diyl)(2S)pyrrolidine-2,1-diyl[(1S)-1-cyclopentyl-2-oxoethane-2,1-diyl]})biscarbamate]	< 0.1 nM
COC(=O)N[C@H](C(=O)N1CCC[C@H]1c1nc2cc([C@@H]3CC[C@@H](c4ccc5[nH]c([C@@H]6CCCN6C(=O)[C@@H](NC(=O)OC)[C@@H](C)OC)nc5c4)N3c3ccc(C4CC4)cc3F)ccc2[nH]1)[C@@H](C)OC [Example 3.13, methyl {(2S,3R)-1-[(2S)-2-{5-[(2S,5S)-1-(4-cyclopropyl-2-fluorophenyl)-5-(2-{(2S)-1-[N-(methoxycarbonyl)-O-methyl-L-threonyl]pyrrolidin-2-yl}-1H-benzimidazol-5-yl)pyrrolidin-2-yl]-1H-benzimidazol-2-yl}pyrrolidin-1-yl]-3-methoxy-1-oxobutan-2-yl}carbamate]	< 0.1 nM
COC(=O)N[C@H](C(=O)N1CCC[C@H]1c1nc2cc([C@H]3CC[C@H](c4cc5nc([C@@H]6CCCN6C(=O)[C@@H](NC(=O)OC)C6CCOCC6)[nH]c5cc4F)N3c3cc(F)c(N4CCN(c5c(F)cccc5F)CC4)c(F)c3)c(F)cc2[nH]1)C1CCOCC1 [Example 3.51, dimethyl ([(2R,5R)-1-{4-[4-(2,6-difluorophenyl)piperazin-1-yl]-3,5-difluorophenyl}pyrrolidine-2,5-diyl]bis{(6-fluoro-1H-benzimidazole-5,2-diyl)(2S)pyrrolidine-2,1-diyl[(1S)-2-oxo-1-(tetrahydro-2H-pyran-4-yl)ethane-2,1-diyl]})biscarbamate]	< 0.1 nM
CCC1(COc2c(F)cc(N3[C@@H](c4ccc5nc([C@@H]6CCCN6C(=O)[C@@H](NC(=O)OC)C(C)C)[nH]c5c4)CC[C@@H]3c3ccc4nc([C@@H]5CCCN5C(=O)[C@@H](NC(=O)OC)C(C)C)[nH]c4c3)cc2F)COC1 [Example 2.5, methyl {(2S)-1-[(2S)-2-{6-[(2R,5R)-1-{4-[(3-ethyloxetan-3-yl)methoxy]-3,5-difluorophenyl}-5-{2-[(2S)-1-{(2S)-2-[(methoxycarbonyl)amino]-3-methylbutanoyl}pyrrolidin-2-yl]-1H-benzimidazol-6-yl}pyrrolidin-2-yl]-1H-benzimidazol-2-yl}pyrrolidin-1-yl]-3-methyl-1-oxobutan-2-yl}carbamate]	< 0.1 nM
